Measured values as given in patent US20130202653A1, “3-ARYL-3-HYDROXY-2-AMINO-PROPIONIC ACID AMIDES, 3-HETEROARYL-3-HYDROXY-2-AMINOPROPIONIC ACID AMIDES AND RELATED COMPOUNDS HAVING ANALGESIC AND/OR IMMUNO STIMULANT ACTIVITY” (Allergan, Inc., priority 2005, published 2013).
Structures can show the parent of a compound that is named as a salt.

Key:
spleen size = assay: Immunostimulation: splenic size after systemic administration; assay type: in vivo; details: animals dosed at 200 mg/kg; rats
Source text: An art accepted method for measuring immuno stimulation comprises systemic administration of compounds to assay for the ability to stimulate the immune system, possibly due to nonspecific upregulation of the hemolymphoreticular system. This upregulation could result in increased numbers of lymphocytes of both T- and B-cell lineage.

[1] = tested on: tactile allodynia in the rat Chung model; assay: Chung model: reversal of tactile allodynia (von Frey hairs) after spinal nerve ligation; assay type: in vivo; details: Rattus norvegicus, 1 h, peak at 60 min post dose, read-out: Peak % Pain reversal: time post dose
Source text: An art-accepted model or assay for measuring an analgesic effect of a compound in chronic pain (in particular peripheral neuropathy) is the model known as Kim and Chung 1992, Pain […], pp 355-363 (Chung model). This model involves the surgical ligation of the L5 (and optionally the L6) spinal nerves on one side in experimental animals. Rats recovering from the surgery gain weight and display a level of general activity similar to that of normal rats. However, these rats develop abnormalities of the foot, wherein the hindpaw is moderately everted and the toes are held together. More importantly, the hindpaw on the side affected by the surgery appears to become sensitive to low-threshold mechanical stimuli and will perceive pain instead of the faint sensation of touch. This sensitivity to normally non-painful touch, called “tactile allodynia”, develops within the first week after surgery and lasts for at least two months. The allodynia response includes lifting the affected hindpaw to escape from the stimulus, licking the paw and holding it in the air for many seconds. None of these responses is normally seen in the control group.
To produce the tactile allodynia, rats are anesthetized before surgery. The surgical site is shaved and prepared either with betadine or Novacaine. Incision is made from the thoracic vertebra X111 down toward the sacrum. Muscle tissue is separated from the spinal vertebra (left side) at the L4-S2 levels. The L6 vertebra is located and the transverse process is carefully removed with a small rongeur to expose the L4-L6 spinal nerves. The L5 and L6 spinal nerves are isolated and tightly ligated with 6-0 silk thread. The same procedure is done on the right side as a control, except no ligation of the spinal nerves is performed.
After a complete hemostasis is confirmed, the wounds are sutured. A small amount of antibiotic ointment is applied to the incised area, and the rat is transferred to the recovery plastic cage under a regulated heat-temperature lamp.
On the day of the experiment, at least seven days after the surgery, typically six rats per test group are administered the test drugs by intraperitoneal (i.p.) injection or oral gavage (p.o.). For i.p. administration, the compounds are formulated in H2O and given in a volume of 1 ml/kg body weight by injecting into the intraperitoneal cavity. For p.o. administration, the compounds are formulated in H2O and given in a volume of 1 ml/kg body weight using an 18-gauge, 3 inch gavage needle that is slowly inserted through the esophagus into the stomach.
Tactile allodynia is assessed via von Frey hairs, which are a series of fine hairs with incremental differences in stiffness. Rats are placed in a plastic cage with a wire mesh bottom and allowed to acclimate for approximately 30 minutes. To establish the pre-drug baseline, the von Frey hairs are applied perpendicularly through the mesh to the mid-plantar region of the rats' hindpaw with sufficient force to cause slight buckling and held for 6-8 seconds. The applied force has been calculated to range from 0.41 to 15.1 grams. If the paw is sharply withdrawn, it is considered a positive response. A normal animal will not respond to stimuli in this range, but a surgically ligated paw will be withdrawn in response to a 1-2 gram hair. The 50% paw withdrawal threshold is determined using the method of Dixon, W. J., Ann. Rev. Pharmacol. Toxicol. 20:441-462 (1980) hereby incorporated by reference. Tactile allodynia is measured prior to and 15, 30, and 60 minutes after drug administration. The post-drug threshold is compared to the pre-drug threshold and the percent reversal of tactile sensitivity is calculated based on a normal threshold of 15.1 grams.
Table 1 below indicates the degree of pain reversal obtained in the Chung model with exemplary compounds of the invention. […]

In the case of N[C@@H](C(=O)N1CCCC1)[C@@H](O)c1ccncc1 (racemic) [Compound 22, DL-threo-2-Amino-3-hydroxy-3-(pyridin-4-yl)-1-(pyrrolidin-1-yl)propan-1-one dihydrochloride], the “increase in spleen size” value (spleen size) is reported as “twentyfive”, the inhibition in vivo at 0.1 mg/kg ([1]; ip, 100 μg/kg IP) is reported as 100% and the inhibition in vivo at 3 mg/kg ([1]; po, 3000 μg/kg PO) is reported as 100%.
In the case of N[C@@H](C(=O)N1CCCC1)[C@@H](O)c1cccnc1 (racemic) (as salt: hydrochloride) [Compound 20, DL-threo-2-Amino-3-hydroxy-3-(pyridin-3-yl)-1-(pyrrolidin-1-yl)propan-1-one dihydrochloride], the melting point is reported as 159.6 °C.
